Consider five compounds from PubChem BioAssay AID1745844 (Carcinogenic Potency Database (CPDB), 2022).

Active and inactive are the calls of the source. The rule behind the calls is not given here.

For this data set, the system named is rodent lifetime carcinogenesis bioassay, tumor incidence TD50. The data set can be described thus: chronic cancer bioassays in animals – CPDB, compiled studies (AID 1745844).
Setting [1] is: mouse, strain B6AKF1, females, oral dosing, site: any site (literature study), lesion: several types, types named in the paper, dosed 76 weeks, study length 76 weeks.
[2] abbreviates: mouse, strain B6AKF1, females, oral dosing, site: liver, lesion: hepatoma, dosed 76 weeks, study length 76 weeks.
Setting [3] is: mouse, strain B6AKF1, males, oral dosing, site: any site (literature study), lesion: several types, types named in the paper, dosed 76 weeks, study length 76 weeks.
Where [4] appears, read: mouse, strain B6AKF1, males, oral dosing, site: liver, lesion: hepatoma, dosed 76 weeks, study length 76 weeks.
Where [5] appears, read: mouse, strain B6AKF1, males, oral dosing, site: lung, lesion: adenoma, dosed 76 weeks, study length 76 weeks.
Where [6] appears, read: mouse, strain B6C3F1, females, oral dosing, site: any site (literature study), lesion: several types, types named in the paper, dosed 76 weeks, study length 76 weeks.
Setting [7] is: mouse, strain B6C3F1, females, oral dosing, site: liver, lesion: hepatoma, dosed 76 weeks, study length 76 weeks.
Setting [8] is: mouse, strain B6C3F1, males, oral dosing, site: any site (literature study), lesion: several types, types named in the paper, dosed 76 weeks, study length 76 weeks.
Where [9] appears, read: mouse, strain B6C3F1, males, oral dosing, site: liver, lesion: hepatoma, dosed 76 weeks, study length 76 weeks.
Setting [10] is: mouse, strain B6C3F1, males, oral dosing, site: lung, lesion: adenoma, dosed 76 weeks, study length 76 weeks.

What is called TD50 is the 50% point of the dose-response relation for the toxic effect studied. On to `Cc1ncc[nH]1`, for which the TD50 (mouse, strain B6C3F1, females, in feed, site: any site (literature study), lesion: several types, types named in the paper, dosed 104 weeks, study length 104 weeks) was 729 mg/kg/day; the TD50 (mouse, strain B6C3F1, females, in feed, site: liver, lesion: hepatocellular adenoma + hepatoblastoma + hepatocellular carcinoma, dosed 104 weeks, study length 104 weeks) is 1620 mg/kg/day; the TD50 (mouse, strain B6C3F1, females, in feed, site: liver, lesion: hepatocellular adenoma, dosed 104 weeks, study length 104 weeks) is 1380 mg/kg/day; the TD50 (mouse, strain B6C3F1, males, in feed, site: any site (literature study), lesion: several types, types named in the paper, dosed 104 weeks, study length 104 weeks) was 866 mg/kg/day; the TD50 (mouse, strain B6C3F1, males, in feed, site: liver + thyroid gland, lesion: hepatocellular adenoma + hepatocellular carcinoma + follicular-cell adenoma, dosed 104 weeks, study length 104 weeks) turned out to be 378 mg/kg/day; the TD50 (mouse, strain B6C3F1, males, in feed, site: liver, lesion: hepatocellular adenoma + hepatoblastoma + hepatocellular carcinoma, dosed 104 weeks, study length 104 weeks) was 546 mg/kg/day. Also, the TD50 runs as follows: (mouse, strain B6C3F1, males, in feed, site: liver, lesion: hepatocellular adenoma + hepatocellular carcinoma, dosed 104 weeks, study length 104 weeks) 546 mg/kg/day; (mouse, strain B6C3F1, males, in feed, site: liver, lesion: hepatocellular adenoma, dosed 104 weeks, study length 104 weeks) 648 mg/kg/day; (mouse, strain B6C3F1, males, in feed, site: liver, lesion: hepatocellular carcinoma, dosed 104 weeks, study length 104 weeks) 378 mg/kg/day; (mouse, strain B6C3F1, males, in feed, site: thyroid gland, lesion: follicular-cell adenoma, dosed 104 weeks, study length 104 weeks) 1810 mg/kg/day; (rat, strain Fischer 344, females, in feed, site: any site (literature study), lesion: several types, types named in the paper, dosed 105 weeks, study length 105 weeks) 131 mg/kg/day; (rat, strain Fischer 344, females, in feed, site: liver, lesion: hepatocellular adenoma + hepatoblastoma + hepatocellular carcinoma, dosed 105 weeks, study length 105 weeks) 2000 mg/kg/day. The TD50 is 2000 mg/kg/day (rat, strain Fischer 344, females, in feed, site: liver, lesion: hepatocellular adenoma, dosed 105 weeks, study length 105 weeks); 882 mg/kg/day (rat, strain Fischer 344, females, in feed, site: thyroid gland, lesion: follicular-cell adenoma + follicular-cell carcinoma, dosed 105 weeks, study length 105 weeks); 2100 mg/kg/day (rat, strain Fischer 344, females, in feed, site: thyroid gland, lesion: follicular-cell adenoma, dosed 105 weeks, study length 105 weeks); 1380 mg/kg/day (rat, strain Fischer 344, females, in feed, site: thyroid gland, lesion: follicular-cell carcinoma, dosed 105 weeks, study length 105 weeks); 303 mg/kg/day (rat, strain Fischer 344, males, in feed, site: any site (literature study), lesion: several types, types named in the paper, dosed 104 weeks, study length 104 weeks); 663 mg/kg/day (rat, strain Fischer 344, males, in feed, site: liver, lesion: hepatocellular adenoma + hepatoblastoma + hepatocellular carcinoma, dosed 104 weeks, study length 104 weeks). For the same compound, the TD50 (rat, strain Fischer 344, males, in feed, site: liver, lesion: hepatocellular adenoma + hepatocellular carcinoma, dosed 104 weeks, study length 104 weeks) was 663 mg/kg/day; the TD50 (rat, strain Fischer 344, males, in feed, site: pancreatic islets, lesion: islet-cell adenoma, dosed 104 weeks, study length 104 weeks) is 1010 mg/kg/day; the TD50 (rat, strain Fischer 344, males, in feed, site: skin, lesion: basal-cell carcinoma + keratoacanthoma + trichoepithelioma, dosed 104 weeks, study length 104 weeks) is 624 mg/kg/day; the TD50 (rat, strain Fischer 344, males, in feed, site: thyroid gland, lesion: follicular-cell adenoma + follicular-cell carcinoma, dosed 104 weeks, study length 104 weeks) was 854 mg/kg/day.
For the compound `O=NN1CC=CCO1`, the TD50 is, setting by setting: (rat, strain Sprague-Dawley, both sexes, in drinking water, site: any site (literature study), lesion: malignant tumor, dosed 87 weeks, study length 101 weeks) 90.6 mg/kg/day; (rat, strain Sprague-Dawley, both sexes, in drinking water, site: any site (literature study), lesion: several types, types named in the paper, dosed 87 weeks, study length 101 weeks) 110 mg/kg/day; (rat, strain Sprague-Dawley, both sexes, in drinking water, site: liver, lesion: hepatoma, dosed 87 weeks, study length 101 weeks) 417 mg/kg/day (inactive).
As for `O=S(=O)(Oc1ccc(Cl)cc1)c1ccc(Cl)cc1`, the carcinogen call was “negative (inactive)” under setting [1]; “negative (inactive)” under setting [2]; “negative (inactive)” (mouse, strain B6AKF1, females, oral dosing, site: lung, lesion: adenoma, dosed 76 weeks, study length 76 weeks); “negative (inactive)” under setting [3]; “negative (inactive)” under setting [4]; “negative (inactive)” under setting [5]. For the same compound, the carcinogen call (mouse, strain B6C3F1, females, oral dosing, site: lung, lesion: several types, types named in the paper, dosed 76 weeks, study length 76 weeks) is “negative (inactive)”. Also, the TD50 runs as follows: under setting [6], 931 mg/kg/day (inactive); under setting [7], 931 mg/kg/day (inactive); under setting [8], 84.5 mg/kg/day (inactive); under setting [9], 422 mg/kg/day (inactive); under setting [10], 869 mg/kg/day (inactive).
Take `CC(O)CN(C)N=O` (centres undefined): the carcinogen call (rat, strain F344/DuCrj, males, in drinking water, site: liver, lesion: one or several types, types not named, dosed 40 weeks, study length 78 weeks) is “negative (inactive)”. The TD50 by setting is: (rat, strain Fischer 344, females, in drinking water, site: esophagus, lesion: carcinoma, dosed 30 weeks, study length 75 weeks) 0.408 mg/kg/day; (rat, strain Fischer 344, females, in drinking water, site: esophagus, lesion: several types, types named in the paper, dosed 30 weeks, study length 75 weeks) 0.105 mg/kg/day; (rat, strain Fischer 344, females, in drinking water, site: liver, lesion: hepatocellular carcinoma, dosed 30 weeks, study length 75 weeks) 0.895 mg/kg/day; (rat, strain Fischer 344, females, in drinking water, site: liver, lesion: neoplastic nodule, dosed 30 weeks, study length 75 weeks) 2.54 mg/kg/day; (rat, strain Fischer 344, females, in drinking water, site: liver, lesion: several types, types named in the paper, dosed 30 weeks, study length 75 weeks) 0.798 mg/kg/day; (rat, strain Fischer 344, females, in drinking water, site: lung, lesion: several types, types named in the paper, dosed 30 weeks, study length 75 weeks) 0.408 mg/kg/day. Besides, the TD50 runs as follows: (rat, strain Fischer 344, females, in drinking water, site: nasal cavity, lesion: several types, types named in the paper, dosed 30 weeks, study length 75 weeks) 0.0486 mg/kg/day; (rat, strain Fischer 344, males, in drinking water, site: esophagus, lesion: several types, types named in the paper, dosed 30 weeks, study length 75 weeks) 0.17 mg/kg/day; (rat, strain Fischer 344, males, in drinking water, site: nasal cavity, lesion: several types, types named in the paper, dosed 30 weeks, study length 75 weeks) 0.0442 mg/kg/day.
Turning to `S=C(S)NCCNC(=S)S`, the carcinogen call reads like this: under setting [1], “negative (inactive)”; under setting [2], “negative (inactive)”; (mouse, strain B6AKF1, females, oral dosing, site: lung, lesion: several types, types named in the paper, dosed 76 weeks, study length 76 weeks) “negative (inactive)”; under setting [3], “negative (inactive)”; under setting [4], “negative (inactive)”; under setting [5], “negative (inactive)”. Moreover, the carcinogen call reads like this: under setting [6], “negative (inactive)”; under setting [7], “negative (inactive)”; (mouse, strain B6C3F1, females, oral dosing, site: lung, lesion: adenoma, dosed 76 weeks, study length 76 weeks) “negative (inactive)”; under setting [8], “negative (inactive)”; under setting [10], “negative (inactive)”. Also, the TD50 under setting [9] is 866 mg/kg/day (inactive).
